Data on 12 compounds can be found in ChEMBL document CHEMBL1201862, “PubChem BioAssay data set” (2004).

Some test systems named below: Malme-3M; HCT-116; SK-OV-3; OVCAR-4; NCI-H226; SF-295; SK-MEL-5; SR; HOP-62; LXFL 529; HT-29; IGROV-1; M14; SK-MEL-28; EKVX; SF-268; Hs-578T; MCF7; PC-3; T47D.
What all share (experiment): growth of human tumour cells (NCI), 48 h

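Exposure lasted 48 hours, with cells grown in 96-well plates and compounds tested at five concentrations. GI50: concentration for 50% inhibition of growth.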 The source made the active and inactive calls. No stated cut-off is given here; in the data, active = GI50 up to about 1.1 µM and inactive = higher.

Turning to `CCOC(=O)N1Cc2ccoc2C1`, the GI50 in the assay on Malme-3M, in the assay on HCT-116, in the assay on SK-OV-3, with OVCAR-4, in the assay on NCI-H226 and with SF-295 was > 100 µM (inactive) in each case. The GI50 in the assay on SK-MEL-5, with SR, in the assay on HOP-62, with LXFL 529, with HT-29 and in the assay with IGROV-1 was > 100 µM (inactive) each time. Further, the GI50 in the assay on M14 was > 100 µM (inactive); in the assay on SK-MEL-28, > 100 µM (inactive); in the assay on EKVX it was > 100 µM (inactive); with SF-268 it was 0.769 µM (active).
In the case of `Oc1cc(O)c2c(-c3c(O)c(-c4ccc(O)c(O)c4)[o+]c4cc(O)cc(O)c34)c(O)c(-c3ccc(O)c(O)c3)[o+]c2c1`, the GI50 in the assay with Malme-3M was 46 µM (inactive); with HCT-116 it was 48.8 µM (inactive); in the assay with SK-OV-3, 34.1 µM (inactive); in the assay on OVCAR-4 it was 27.5 µM (inactive); in the assay with NCI-H226, 20.1 µM (inactive); in the assay on SF-295, 41.8 µM (inactive). Besides, the GI50 in the assay on SK-MEL-5 was > 100 µM (inactive); with SR, 25.9 µM (inactive); in the assay on HOP-62, 38.9 µM (inactive); with LXFL 529, 55.5 µM (inactive); in the assay on HT-29, 37.6 µM (inactive); with IGROV-1 it was 48 µM (inactive). In addition, the GI50 is 55.5 µM (inactive) in the assay on M14, 91.2 µM (inactive) in the assay with SK-MEL-28, 28.7 µM (inactive) in the assay with EKVX and 40.3 µM (inactive) in the assay with SF-268.
With `O=[N+]([O-])c1ccccc1S(=O)(=O)c1ccccc1[N+](=O)[O-]`, the GI50 is > 100 µM (inactive) in the assay with Malme-3M; > 100 µM (inactive) in the assay on HCT-116; > 90.8 µM (inactive) with SK-OV-3; > 100 µM (inactive) in the assay with OVCAR-4; > 79.3 µM (inactive) in the assay with NCI-H226; 32.4 µM (inactive) in the assay on Hs-578T. Also, the GI50 is > 100 µM (inactive) with MCF7; 36.9 µM (inactive) with SF-295; > 56.2 µM (inactive) with SK-MEL-5; > 100 µM (inactive) in the assay on SR; > 100 µM (inactive) in the assay on PC-3; 34.9 µM (inactive) in the assay on HOP-62. The GI50 in the assay with T47D was > 100 µM (inactive); in the assay on LXFL 529, > 100 µM (inactive); in the assay on HT-29, > 100 µM (inactive); in the assay on IGROV-1 it was > 84.7 µM (inactive); in the assay on M14, > 100 µM (inactive); with SK-MEL-28 it was > 100 µM (inactive). Moreover, the GI50 is > 56.2 µM (inactive) in the assay with EKVX and 31.7 µM (inactive) in the assay on SF-268.
With `COc1ccccc1C(O)(c1ccccc1)C(O)(c1ccccc1)c1ccccc1OC` (configuration not stated), the GI50 in the assay on Malme-3M is > 100 µM (inactive); with HCT-116, > 100 µM (inactive); in the assay on SK-OV-3, > 31.6 µM (inactive); in the assay on OVCAR-4, > 100 µM (inactive); in the assay on NCI-H226, > 100 µM (inactive); in the assay on SF-295 it was > 100 µM (inactive). Further, the GI50 in the assay on SK-MEL-5, with SR, in the assay on HOP-62, in the assay on LXFL 529, with HT-29 and in the assay with IGROV-1 was > 100 µM (inactive) each time. The GI50 in the assay with M14, in the assay with SK-MEL-28, in the assay on EKVX and with SF-268 was > 100 µM (inactive) throughout.
Turning to `COc1cc([C@@H]2c3cc4c(cc3[C@@H](OC(=O)c3cccc(N)c3)C3COC(=O)[C@@H]32)OCO4)cc(OC)c1O` (some centres not stated), the GI50 in the assay on Malme-3M is 2.37 µM (inactive); with HCT-116, 5.71 µM (inactive); with SK-OV-3, 11.5 µM (inactive); in the assay on OVCAR-4 it was 42.1 µM (inactive); in the assay on NCI-H226, 1.15 µM (inactive); in the assay on SF-295 it was 0.32 µM (active). Besides, the GI50 with SK-MEL-5 is 0.536 µM (active); with SR, 0.565 µM (active); in the assay on HOP-62 it was 2.32 µM (inactive); with LXFL 529 it was 0.76 µM (active); with HT-29, 3.13 µM (inactive); in the assay with IGROV-1, 13.8 µM (inactive). Further, the GI50 is 0.933 µM (active) in the assay on M14, 0.91 µM (active) with SK-MEL-28, 27 µM (inactive) in the assay with EKVX and 1.47 µM (inactive) in the assay with SF-268.
In the case of `NC(=S)N/N=C(\CCC(=O)Nc1ccccc1[N+](=O)[O-])CC(=O)c1ccco1`, the GI50 in the assay on Malme-3M, in the assay with HCT-116, in the assay with SK-OV-3, in the assay with OVCAR-4, in the assay on NCI-H226 and with SF-295 was > 100 µM (inactive) in each case. The GI50 in the assay on SK-MEL-5, in the assay on SR, in the assay with HOP-62, in the assay with LXFL 529, in the assay with HT-29 and in the assay with IGROV-1 was > 100 µM (inactive) throughout. Further, the GI50 with M14, in the assay on SK-MEL-28, in the assay on EKVX and in the assay with SF-268 was > 100 µM (inactive) throughout.
For `Cc1cn2c(=O)c3ccccc3nc2s1`, the GI50 is > 100 µM (inactive) in the assay with Malme-3M; > 100 µM (inactive) in the assay with HCT-116; > 100 µM (inactive) in the assay with SK-OV-3; 76.6 µM (inactive) in the assay with OVCAR-4; > 100 µM (inactive) with NCI-H226; > 100 µM (inactive) in the assay with SF-295. In addition, the GI50 in the assay on SK-MEL-5, with SR, with HOP-62, with LXFL 529, in the assay on HT-29 and with IGROV-1 was > 100 µM (inactive) each time. The GI50 with M14, with SK-MEL-28, in the assay with EKVX and in the assay on SF-268 was > 100 µM (inactive) each time.
Consider `O=S1(=O)NN=C(NCc2ccc(F)cc2)c2ccccc21`, for which the GI50 with Malme-3M was > 89.3 µM (inactive); in the assay on HCT-116 it was > 100 µM (inactive); in the assay on SK-OV-3 it was 50.6 µM (inactive); with OVCAR-4 it was > 48 µM (inactive); in the assay on NCI-H226, > 100 µM (inactive); in the assay on Hs-578T, 17.5 µM (inactive). The GI50 in the assay on MCF7 was > 100 µM (inactive); in the assay with SF-295 it was > 71.9 µM (inactive); in the assay with SK-MEL-5 it was > 68.2 µM (inactive); in the assay with SR, > 44.7 µM (inactive); in the assay with HOP-62 it was 39.6 µM (inactive); with T47D it was > 100 µM (inactive). Also, the GI50 in the assay with LXFL 529 was 27.7 µM (inactive); with HT-29, > 63.1 µM (inactive); in the assay with IGROV-1, > 72.4 µM (inactive); with M14, > 50.9 µM (inactive); with SK-MEL-28, > 100 µM (inactive); in the assay on EKVX, > 100 µM (inactive). The GI50 with SF-268 is > 100 µM (inactive).
For `CC(C)(CCl)NC(=O)c1cccc(C(=O)NC(C)(C)CCl)n1`, the GI50 in the assay on Malme-3M, with HCT-116, in the assay on SK-OV-3, in the assay on OVCAR-4, in the assay on NCI-H226 and with SF-295 was > 100 µM (inactive) throughout. Besides, the GI50 in the assay on SK-MEL-5, in the assay with SR, in the assay with HOP-62, with LXFL 529, with HT-29 and with IGROV-1 was > 100 µM (inactive) each time. The GI50 in the assay with M14, with SK-MEL-28, in the assay on EKVX and in the assay with SF-268 was > 100 µM (inactive) each time.
For `C=CCCn1nc(-c2ccccc2)oc1=O`, the GI50 in the assay on Malme-3M, with HCT-116, with SK-OV-3, in the assay on OVCAR-4, in the assay with NCI-H226 and in the assay on SF-295 was > 100 µM (inactive) throughout. Also, the GI50 with SK-MEL-5, with SR, in the assay with HOP-62, with LXFL 529, with HT-29 and with IGROV-1 was > 100 µM (inactive) in each case. In addition, the GI50 with M14, in the assay on SK-MEL-28, in the assay on EKVX and with SF-268 was > 100 µM (inactive) throughout.
Turning to `CN/N=C(/Cc1occc(=O)c1O)C(=O)Nc1ccccc1C`, the GI50 with Malme-3M, with HCT-116, with SK-OV-3, in the assay on OVCAR-4, in the assay on NCI-H226 and with SF-295 was > 100 µM (inactive) throughout. The GI50 in the assay with SK-MEL-5, in the assay with SR, with HOP-62, in the assay on LXFL 529, in the assay on HT-29 and in the assay with IGROV-1 was > 100 µM (inactive) each time. Besides, the GI50 in the assay with M14, in the assay with SK-MEL-28, in the assay with EKVX and in the assay on SF-268 was > 100 µM (inactive) in each case.
For the compound `CN(C)CCNC(=O)c1cccc2cc3c(Cl)cccc3nc12`, the GI50 with Malme-3M is 0.865 µM (active); in the assay with HCT-116, 0.601 µM (active); with SK-OV-3, 3.53 µM (inactive); in the assay on OVCAR-4 it was 2.02 µM (inactive); in the assay on NCI-H226 it was 1.15 µM (inactive); in the assay on SK-MEL-5 it was 1.71 µM (inactive). Moreover, the GI50 in the assay with SR was 0.308 µM (active); with HOP-62 it was 0.718 µM (active); in the assay on LXFL 529, 1.67 µM (inactive); with HT-29, 0.889 µM (active); in the assay on IGROV-1, 1.2 µM (inactive); in the assay with M14, 2.12 µM (inactive). Besides, the GI50 was 2.15 µM (inactive) in the assay with SK-MEL-28 and 2.35 µM (inactive) with EKVX.
